Reference: patent publication US20230286973A1, “PROTEIN SECRETION INHIBITORS” (KEZAR LIFE SCIENCES, priority 2020, published 2023)

Key:
[1] = Liver Microsome Stability Assay (monkey); details: monkey liver microsomes, with NADPH, 1.0 uM compound
Description: (§1) Stability of a compound was assessed in the presence of liver microsomes from various sources—mouse, rat, monkey and human liver microsomes. 1.0 uM compound, 0.4% DMSO in 0.1 M Potassium Phosphate with 1.0 mg/mL liver microsomes, were incubated at 37° C. with or without 1 mM NADPH. The samples were quenched at 0, and 30 minutes.

[2] = Liver Microsome Stability Assay (mouse); details: mouse liver microsomes, with NADPH, 1.0 uM compound
Description: as §1

[3] = tested on: multiple myeloma cell line U266B1; experiment: U266 Cell Viability Assay; format: cell-based, human; details: Homo sapiens, U-266, 48 h, U266B1 cells, Celltiter-Glo
Procedure, shortened: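 48 h treatment, 37° C./5% CO2, RPMI 1640 + 10% FBS; viability by CellTiter-Glo luminescence.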

[4] = Liver Microsome Stability Assay (human); details: human liver microsomes, with NADPH, 1.0 uM compound
Description: as §1

[5] = tested on: multiple myeloma cell line NCI-H929; experiment: H929 Cell Viability Assay; format: cell-based, human; details: Homo sapiens, NCI-H929, 48 h, NCI-H929 cells, Celltiter-Glo
Procedure, shortened: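 Plate the myeloma cells in RPMI 1640 with 10% FBS, add serially diluted compound, incubate for 48 hours at 37° C, then add CellTiter-Glo and read luciferase signal.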

[6] = Liver Microsome Stability Assay (rat); details: rat liver microsomes, with NADPH, 1.0 uM compound
Description: as §1

[7] = tested on: HER3-ss+4aa/Gaussia Luciferase; experiment: Dox-Induced Her3-ss-Gluc Assay; format: cell-based; details: 24 hr Dox induction; 293FRT/TO cells; read-out: 24 hr Dox Inducible Her3(ss + 4)Gluc 293FRT/TO: Mean IC50
Procedure, shortened: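 Expression of a Gaussia luciferase reporter carrying the HER3 signal sequence plus 4 amino acids is induced by doxycycline in stably transfected Flp-In 293 T-REx cells. Compounds are added with doxycycline at 37° C., 5% CO2. Undefined stereocentres denote stereoisomer mixtures.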

[8] = tested on: PD1-ss+10aa/Gaussia Luciferase; experiment: Dox-Induced PD1-ss-Gluc Assay; format: cell-based; details: 24 hr Dox induction; 293FRT/TO cells; read-out: 24 hr Dox Inducible PD1ssGluc 293FRT/TO: Mean IC50
Procedure, shortened: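 Doxycycline-induced expression of a PD1-ss+10aa/Gaussia luciferase reporter is measured in stable Flp-In 293 T-REx cells. Compound dilutions containing doxycycline are added one day after plating and incubated at 37 °C, 5% CO2. Values for unassigned stereocentres refer to stereoisomer mixtures.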

[9] = tested on: IL-2-FL/Gaussia Luciferase; experiment: Dox Induced IL2-FL-Gluc Assay; format: cell-based; details: for IC50: 24 hr Dox induction, 293FRT/TO cells, read-out: 24 hr Dox Inducible IL2FLGluc 293FRT/TO: Mean IC50; for 24 hr Dox Inducible IL2FLGluc 293FRT/TO: IL2/PD1: ratio of IL2FLGluc IC50 to PD1ssGluc IC50
Procedure, shortened: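 Reporter is Gaussia luciferase fused to the 3′ end of full-length IL-2 (aa 1-153), expressed from a doxycycline-inducible T-REx construct in stably selected Flp-In 293 cells. Compounds were co-added with doxycycline and incubated at 37° C, 5% CO2.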

[10] = tested on: TNFα-FL/Gaussia Luciferase; experiment: Dox Induced TNFα-FL-Gluc Assay; format: cell-based; details: for IC50: 24 hr Dox induction, 293FRT/TO cells, read-out: 24 hr Dox Inducible TNFaFLGluc 293FRT/TO: Mean IC50; for 24 hr Dox Inducible TNFaFLGluc 293FRT/TO: TNF/PD1: ratio of TNFaFLGluc IC50 to PD1ssGluc IC50
Procedure, shortened: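 Cells are seeded one day ahead, then treated with compound plus doxycycline at 37 °C, 5% CO2. The stable Flp-In 293 T-REx line expresses full-length TNFα (amino acids 1-233) with Gaussia luciferase fused to its 3′ end, inducibly via T-REx.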

SMILES	Liver Microsome Stability (Multiple Species): Monkey - % Remaining after 30 min w/NADPH [1] [%]	Liver Microsome Stability (Multiple Species): Mouse - % Remaining after 30 min w/NADPH [2] [%]	EC50 [3] [nM]	Liver Microsome Stability (Multiple Species): Human - % Remaining after 30 min w/NADPH [4] [%]	EC50 [5] [nM]	Liver Microsome Stability (Multiple Species): Rat - % Remaining after 30 min w/NADPH [6] [%]	IC50 [7] [nM]	IC50 [8] [nM]	IC50 [9] [nM]	24 hr Dox Inducible IL2FLGluc 293FRT/TO: IL2/PD1 [9]	IC50 [10] [nM]	24 hr Dox Inducible TNFaFLGluc 293FRT/TO: TNF/PD1 [10]
CC(=O)N1CCC(Cc2ccc(N3CCC[C@@H]3c3csc(NC(=O)c4cccn4Cc4ccnc(F)c4)n3)cc2)CC1 [Compound A160, (R)-N-(4-(1-(4-((1-acetylpiperidin-4-yl)methyl)phenyl)pyrrolidin-2-yl)thiazol-2-yl)-1-((2-fluoropyridin-4-yl)methyl)-1H-pyrrole-2-carboxamide]	0.18	6.28	> 25000	0.66	2670	16.8	82.4	48.1	96	2	691	14.3
CC(=O)N1CCC(C(C)c2ccc(N3CCC[C@@H]3c3csc(NC(=O)c4cccn4Cc4ccnc(F)c4)n3)cc2)CC1 (stereo partly drawn) [Compound A161, N-(4-((2R)-1-(4-(1-(1-acetylpiperidin-4-yl)ethyl)phenyl)pyrrolidin-2-yl)thiazol-2-yl)-1-((2-fluoropyridin-4-yl)methyl)-1H-pyrrole-2-carboxamide]	0.12	0.42	> 25000	1.04	12400	7.32	406	284	640	2.3	4000	14.1
O=C(Nc1nc(-c2cccc(-c3ccccn3)c2)cs1)c1cccn1Cc1ccnc(F)c1 [Compound A162, 1-((2-fluoropyridin-4-yl)methyl)-N-(4-(3-(pyridin-2-yl)phenyl)thiazol-2-yl)-1H-pyrrole-2-carboxamide]	0.25	7.13	> 25000	1.91	> 25000	8.48	1270	758	1770	2.4	> 25000	>33.0
Cc1cc(C(=O)Nc2nc([C@H]3CCCN3c3ccc(NC(=O)N(C)C)cc3)cs2)n(Cc2ccnc(F)c2)c1 [Compound A163, (R)-N-(4-(1-(4-(3,3-dimethylureido)phenyl)pyrrolidin-2-yl)thiazol-2-yl)-1-((2-fluoropyridin-4-yl)methyl)-4-methyl-1H-pyrrole-2-carboxamide]	44.9	36.3	> 25000	67.5	714	50.2	29.9	16.1	39.6	2.5	328	20.3
CC(=O)Nc1ccc(N2CCC[C@@H]2c2csc(NC(=O)c3cc(C)cn3Cc3ccnc(F)c3)n2)cc1 [Compound A164, (R)-N-(4-(1-(4-acetamidophenyl)pyrrolidin-2-yl)thiazol-2-yl)-1-((2-fluoropyridin-4-yl)methyl)-4-methyl-1H-pyrrole-2-carboxamide]	32.3	18.8	> 25000	36.5	274	19.4	17.3	7.95	19.1	2.4	148	18.7
CC(=O)N1CCC(Oc2ccc(N3CCC[C@@H]3c3csc(NC(=O)c4cc(C)cn4Cc4ccnc(F)c4)n3)cc2)CC1 [Compound A165, (R)-N-(4-(1-(4-((1-acetylpiperidin-4-yl)oxy)phenyl)pyrrolidin-2-yl)thiazol-2-yl)-1-((2-fluoropyridin-4-yl)methyl)-4-methyl-1H-pyrrole-2-carboxamide]	47.5	30.7	> 25000	42.1	867	59.2	53	29.8	45.2	1.5	386	13
Cc1cc(C(=O)Nc2nc([C@H]3CCCN3c3ccc(OC4CCN(C(N)=O)CC4)cc3)cs2)n(Cc2ccnc(F)c2)c1 [Compound A166, (R)-4-(4-(2-(2-(1-((2-fluoropyridin-4-yl)methyl)-4-methyl-1H-pyrrole-2-carboxamido)thiazol-4-yl)pyrrolidin-1-yl)phenoxy)piperidine-1-carboxamide]	72.2	63.9	> 25000	64.3	2210	78.7	93.7	52.8	109	2.1	744	14.1
CC(C)n1cnc(-c2cccc(-c3csc(NC(=O)c4cccn4Cc4ccnc(F)c4)n3)c2)c1 [Compound A167, 1-((2-fluoropyridin-4-yl)methyl)-N-(4-(3-(1-isopropyl-1H-imidazol-4-yl)phenyl)thiazol-2-yl)-1H-pyrrole-2-carboxamide]	0.15	12	> 25000	0.06	> 25000	13	603	362	1450	4	> 25000	>69.1
O=C(Nc1nc(-c2ccccc2-c2ccccn2)cs1)c1cccn1Cc1ccnc(F)c1 [Compound A168, 1-((2-fluoropyridin-4-yl)methyl)-N-(4-(2-(pyridin-2-yl)phenyl)thiazol-2-yl)-1H-pyrrole-2-carboxamide]	0.02	0.09	> 25000	0.45	2710	0.52	60.5	35	53.7	1.5	569	16.3
